Measured values taken from patent publication US9587005B2 (priority 2010, dated 2017).
One block for each molecule: values may come before it. *1 amine or outer side, *2 acyl side, *3 side chain or, on linkers, in order; H or OH if unused. Where a SMILES comes first, the peptide text is derived from it. Bridges are numbered along the chain shown (N, C = ends). Where no end group is shown, it is not given here. Side-chain parts run from the residue outwards. [ ]: non-standard residue; d: D form. The star is where a group is joined. γGlu = O=C(O)[C@H](CCC(=O)[*:2])N[*:1]; Palmitoyl = CCCCCCCCCCCCCCCC(=O)*; Aib = CC(C)(N)C(=O)O

What was measured:
Assay type in all cases: cell-based
GLP-1 receptor = target: T1, GLP-1 receptor (Homo sapiens, UniProt P43220); assay: cAMP induction, firefly luciferase reporter assay in HEK293 cells co-transfected with GLP-1 receptor
T1 construct: expressed in transfected cells; host or cells: HEK293
T1 sequence (P43220 24-463): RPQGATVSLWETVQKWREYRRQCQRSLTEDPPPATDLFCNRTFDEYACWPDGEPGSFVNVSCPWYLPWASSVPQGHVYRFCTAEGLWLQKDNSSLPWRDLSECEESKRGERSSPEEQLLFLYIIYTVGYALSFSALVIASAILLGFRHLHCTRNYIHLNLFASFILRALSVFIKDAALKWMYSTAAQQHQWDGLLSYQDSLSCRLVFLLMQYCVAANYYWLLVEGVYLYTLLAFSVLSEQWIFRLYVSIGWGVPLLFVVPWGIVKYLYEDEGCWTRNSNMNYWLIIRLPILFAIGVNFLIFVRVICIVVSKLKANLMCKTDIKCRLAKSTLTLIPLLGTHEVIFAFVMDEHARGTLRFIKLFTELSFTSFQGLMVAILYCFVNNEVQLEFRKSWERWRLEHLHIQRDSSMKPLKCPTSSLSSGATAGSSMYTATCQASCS
Source text: (§1) This example describes an exemplary method of testing the biological activity of the peptides of the present disclosures, which method involves assaying cAMP synthesis.

glucagon receptor = target: T2, glucagon receptor (Homo sapiens, UniProt P47871); assay: cAMP induction, firefly luciferase reporter assay in HEK293 cells co-transfected with glucagon receptor; conditions: EC50 (nM) at Glucagon Receptor, Table 4, Example 9; composite of multiple different activity assays
T2 construct: expressed in transfected cells; host or cells: HEK293
T2 sequence (P47871 26-477): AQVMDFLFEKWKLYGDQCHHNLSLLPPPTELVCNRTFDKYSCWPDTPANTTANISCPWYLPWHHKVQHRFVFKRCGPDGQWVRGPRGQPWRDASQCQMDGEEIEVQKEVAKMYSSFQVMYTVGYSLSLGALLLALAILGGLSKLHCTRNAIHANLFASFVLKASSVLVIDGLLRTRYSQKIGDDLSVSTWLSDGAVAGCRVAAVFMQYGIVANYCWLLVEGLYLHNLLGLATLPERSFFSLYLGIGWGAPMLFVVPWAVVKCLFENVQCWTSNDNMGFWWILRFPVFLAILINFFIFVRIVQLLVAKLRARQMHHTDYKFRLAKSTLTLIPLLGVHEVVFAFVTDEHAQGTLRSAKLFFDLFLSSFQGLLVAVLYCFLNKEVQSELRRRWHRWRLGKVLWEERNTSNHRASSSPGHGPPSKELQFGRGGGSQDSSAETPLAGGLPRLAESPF
Source text: as §1

GIP receptor = target: T3, GIP receptor (Homo sapiens, UniProt P48546); assay: cAMP induction, firefly luciferase reporter assay in HEK293 cells co-transfected with GIP receptor
T3 sequence (P48546 22-466): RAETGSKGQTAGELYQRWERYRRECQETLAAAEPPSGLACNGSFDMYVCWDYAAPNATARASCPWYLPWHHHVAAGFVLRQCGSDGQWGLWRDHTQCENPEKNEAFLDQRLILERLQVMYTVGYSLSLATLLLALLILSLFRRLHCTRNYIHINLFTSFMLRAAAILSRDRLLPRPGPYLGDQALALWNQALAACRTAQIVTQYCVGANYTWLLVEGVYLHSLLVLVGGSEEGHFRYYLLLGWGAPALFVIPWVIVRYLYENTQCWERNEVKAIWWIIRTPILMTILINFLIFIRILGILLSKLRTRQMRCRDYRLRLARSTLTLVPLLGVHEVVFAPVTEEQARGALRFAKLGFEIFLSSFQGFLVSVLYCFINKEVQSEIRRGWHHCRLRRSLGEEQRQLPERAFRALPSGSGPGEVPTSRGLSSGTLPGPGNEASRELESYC

[1] = EC50 (nM) at GLP-1 Receptor, Table 4, Example 9, composite of multiple different activity assays
[2] = EC50 (nM) at GLP-1 Receptor, Table 6, Example 12
[3] = EC50 (nM) at GIP Receptor, Table 6, Example 12

Molecule: CCCCCCCCCCCCCCCC(=O)N[C@@H](CCC(=O)NCCCC[C@H](NC(=O)[C@H](CC(=O)O)NC(=O)[C@H](CO)NC(=O)[C@@H](NC(=O)[C@H](Cc1ccccc1)NC(=O)[C@@H](NC(=O)CNC(=O)[C@H](CCC(N)=O)NC(=O)[C@@H](CO)NC(=O)[C@@H](N)Cc1c[nH]cn1)[C@@H](C)O)[C@@H](C)O)C(=O)N[C@@H](CO)C(=O)N[C@@H](CCCCN)C(=O)N[C@@H](Cc1ccc(O)cc1)C(=O)N[C@@H](CC(C)C)C(=O)N[C@@H](CC(=O)O)C(=O)N[C@@H](CCC(=O)O)C(=O)N[C@@H](CCCNC(=N)N)C(=O)N[C@@H](C)C(=O)N[C@@H](C)C(=O)N[C@@H](CCC(N)=O)C(=O)N[C@@H](CC(=O)O)C(=O)N[C@@H](Cc1ccccc1)C(=O)N[C@H](C(=O)N[C@@H](CCC(N)=O)C(=O)N[C@@H](Cc1c[nH]c2ccccc12)C(=O)N[C@@H](CC(C)C)C(=O)N[C@@H](CC(C)C)C(=O)N[C@@H](CC(=O)O)C(=O)NCC(=O)NCC(=O)N1CCC[C@H]1C(=O)N[C@@H](CO)C(=O)N[C@@H](CO)C(=O)NCC(=O)N[C@@H](C)C(=O)N1CCC[C@H]1C(=O)N1CCC[C@H]1C(=O)N1CCC[C@H]1C(=O)N[C@@H](CO)C(N)=O)C(C)C)C(=O)O [compound 27]
- EC50 (GLP-1 receptor; [1]): 0.002 nM
- EC50 (glucagon receptor): 0.003 nM

- EC50 (GLP-1 receptor; [1]): 0.003 nM
- EC50 (glucagon receptor): 0.007 nM
Molecule: CCCCCCCCCCCCCCCC(=O)N[C@@H](CCC(=O)NCCCC[C@H](NC(=O)[C@H](CC(=O)O)NC(=O)[C@H](CO)NC(=O)[C@@H](NC(=O)[C@H](Cc1ccccc1)NC(=O)[C@@H](NC(=O)CNC(=O)[C@H](CCC(N)=O)NC(=O)C(C)(C)NC(=O)[C@@H](N)Cc1cnc[nH]1)[C@@H](C)O)[C@@H](C)O)C(=O)N[C@@H](CO)C(=O)N[C@@H](CCCCN)C(=O)N[C@@H](Cc1ccc(O)cc1)C(=O)N[C@@H](CC(C)C)C(=O)N[C@@H](CC(=O)O)C(=O)N[C@@H](CCC(=O)O)C(=O)N[C@@H](CCCNC(=N)N)C(=O)N[C@@H](C)C(=O)N[C@@H](C)C(=O)N[C@@H](CCC(N)=O)C(=O)N[C@@H](CC(=O)O)C(=O)N[C@@H](Cc1ccccc1)C(=O)N[C@H](C(=O)N[C@@H](CCC(N)=O)C(=O)N[C@@H](Cc1c[nH]c2ccccc12)C(=O)N[C@@H](CC(C)C)C(=O)N[C@@H](CC(C)C)C(=O)N[C@@H](CC(=O)O)C(=O)NCC(=O)N[C@@H](CCCNC(=N)N)C(=O)NCC(N)=O)C(C)C)C(=O)O [compound 29]

- EC50 (GLP-1 receptor; [1]): 0.0031 nM
- EC50 (glucagon receptor): 0.008 nM
Molecule: CCCCCCCCCCCCCCCC(=O)N[C@@H](CCC(=O)NCCCC[C@H](NC(=O)[C@H](CC(=O)O)NC(=O)[C@H](CO)NC(=O)[C@@H](NC(=O)[C@H](Cc1ccccc1)NC(=O)[C@@H](NC(=O)CNC(=O)[C@H](CCC(N)=O)NC(=O)[C@@H](CO)NC(=O)[C@@H](N)Cc1c[nH]cn1)[C@@H](C)O)[C@@H](C)O)C(=O)N[C@@H](CO)C(=O)N[C@@H](CCCCN)C(=O)N[C@@H](Cc1ccc(O)cc1)C(=O)N[C@@H](CC(C)C)C(=O)N[C@@H](CC(=O)O)C(=O)N[C@@H](CCC(=O)O)C(=O)N[C@@H](CCCNC(=N)N)C(=O)N[C@@H](CCCNC(=N)N)C(=O)N[C@@H](C)C(=O)NC(C)(C)C(=O)N[C@@H](CCC(=O)O)C(=O)N[C@@H](Cc1ccccc1)C(=O)N[C@H](C(=O)N[C@@H](CCC(N)=O)C(=O)N[C@@H](Cc1c[nH]c2ccccc12)C(=O)N[C@@H](CC(C)C)C(=O)N[C@@H](CC(C)C)C(=O)N[C@@H](CC(=O)O)C(=O)N[C@H](C(N)=O)[C@@H](C)O)C(C)C)C(=O)O [compound 30] (H-H[dS]QGTFTSDK([γGlu-Palmitoyl])SKYLDERRA[Aib]EFVQWLLDT-NH2; N-terminus assumed)

Molecule: CC[C@H](C)[C@H](NC(=O)[C@H](CO)NC(=O)[C@H](Cc1ccc(O)cc1)NC(=O)[C@H](CC(=O)O)NC(=O)[C@H](CO)NC(=O)[C@@H](NC(=O)[C@H](Cc1ccccc1)NC(=O)[C@@H](NC(=O)CNC(=O)[C@H](CCC(N)=O)NC(=O)C(C)(C)NC(=O)[C@@H](N)Cc1c[nH]cn1)[C@@H](C)O)[C@@H](C)O)C(=O)N[C@@H](Cc1ccc(O)cc1)C(=O)N[C@@H](CC(C)C)C(=O)N[C@@H](CC(=O)O)C(=O)N[C@@H](CCCCN)C(=O)N[C@@H](CCC(N)=O)C(=O)N[C@@H](C)C(=O)N[C@@H](C)C(=O)NC(C)(C)C(=O)N[C@@H](CCC(=O)O)C(=O)N[C@@H](Cc1ccccc1)C(=O)N[C@H](C(=O)N[C@@H](CC(N)=O)C(=O)N[C@@H](Cc1c[nH]c2ccccc12)C(=O)N[C@@H](CC(C)C)C(=O)N[C@@H](CC(C)C)C(=O)N[C@@H](C)C(=O)NCC(=O)NCC(=O)N1CCC[C@H]1C(=O)N[C@@H](CO)C(=O)N[C@@H](CO)C(=O)NCC(=O)N[C@@H](C)C(=O)N1CCC[C@H]1C(=O)N1CCC[C@H]1C(=O)N1CCC[C@H]1C(=O)N[C@@H](CO)C(=O)N[C@@H](CS)C(N)=O)C(C)C [compound 52] (H-H[Aib]QGTFTSDYSIYLDKQAA[Aib]EFVNWLLAGGPSSGAPPPSC-NH2)
- EC50 (GLP-1 receptor; [2]): 0.005 nM
- EC50 (GIP receptor; [3]): 0.006 nM

Molecule: CC[C@H](C)[C@H](NC(=O)[C@H](CO)NC(=O)[C@H](Cc1ccc(O)cc1)NC(=O)[C@H](CC(=O)O)NC(=O)[C@H](CO)NC(=O)[C@@H](NC(=O)[C@H](Cc1ccccc1)NC(=O)[C@@H](NC(=O)CNC(=O)[C@H](CCC(N)=O)NC(=O)C(C)(C)NC(=O)[C@@H](N)Cc1ccc(O)cc1)[C@@H](C)O)[C@@H](C)O)C(=O)N[C@@H](Cc1ccc(O)cc1)C(=O)N[C@@H](CC(C)C)C(=O)N[C@@H](CC(=O)O)C(=O)N[C@@H](CCCCN)C(=O)N[C@H]1CCC(=O)NCCCC[C@@H](C(=O)N[C@@H](Cc2ccccc2)C(=O)N[C@H](C(=O)N[C@@H](CC(N)=O)C(=O)N[C@@H](Cc2c[nH]c3ccccc23)C(=O)N[C@@H](CC(C)C)C(=O)N[C@@H](CC(C)C)C(=O)N[C@@H](C)C(=O)NCC(=O)NCC(=O)N2CCC[C@H]2C(=O)N[C@@H](CO)C(=O)N[C@@H](CO)C(=O)NCC(=O)N[C@@H](C)C(=O)N2CCC[C@H]2C(=O)N2CCC[C@H]2C(=O)N2CCC[C@H]2C(=O)N[C@@H](CO)C(=O)N[C@@H](CS)C(N)=O)C(C)C)NC(=O)C(C)(C)NC(=O)[C@H](C)NC(=O)[C@H](C)NC1=O [compound 58] (H-Y[Aib]QGTFTSDYSIYLDKEAA[Aib]KFVNWLLAGGPSSGAPPPSC-NH2; lactam 17-21)
- EC50 (GLP-1 receptor; [2]): 0.014 nM
- EC50 (GIP receptor; [3]): 0.005 nM

- EC50 (GLP-1 receptor; EC50 (nM) at GLP-1 Receptor, Table 7, Example 13): 0.0031 nM
- EC50 (GIP receptor; EC50 (nM) at GIP Receptor, Table 7, Example 13): 0.021 nM
Molecule: CCCCCCCCCCCCCCCC(=O)N[C@@H](CCC(=O)N[C@@H](CCC(=O)NCCCC[C@H](NC(=O)[C@H](CC(=O)O)NC(=O)[C@H](CO)NC(=O)[C@@H](NC(=O)[C@H](Cc1ccccc1)NC(=O)[C@@H](NC(=O)CNC(=O)[C@H](CCC(N)=O)NC(=O)C(C)(C)NC(=O)[C@@H](N)Cc1ccc(O)cc1)[C@@H](C)O)[C@@H](C)O)C(=O)N[C@@H](CO)C(=O)N[C@H](C(=O)N[C@@H](Cc1ccc(O)cc1)C(=O)N[C@@H](CC(C)C)C(=O)N[C@@H](CC(=O)O)C(=O)N[C@@H](CCCCN)C(=O)N[C@@H](CCC(N)=O)C(=O)N[C@@H](C)C(=O)N[C@@H](C)C(=O)NC(C)(C)C(=O)N[C@@H](CCC(=O)O)C(=O)N[C@@H](Cc1ccccc1)C(=O)N[C@H](C(=O)N[C@@H](CC(N)=O)C(=O)N[C@@H](Cc1c[nH]c2ccccc12)C(=O)N[C@@H](CC(C)C)C(=O)N[C@@H](CC(C)C)C(=O)N[C@@H](CC(=O)O)C(=O)N[C@H](C(N)=O)[C@@H](C)O)C(C)C)[C@@H](C)CC)C(=O)O)C(=O)O [compound 92] (H-Y[Aib]QGTFTSDK([γGlu-γGlu-Palmitoyl])SIYLDKQAA[Aib]EFVNWLLDT-NH2; N-terminus assumed)

Molecule: H[Aib]EGTFTSDYSKYLDERAAQDFVQWLLDGGPSSGAPPPSK([γGlu-γGlu-Palmitoyl])G-NH2 [SEQ ID NO: 171]
- EC50 (GLP-1 receptor; EC50 (nM) at GLP-1 receptor, Table 15, Example 23): 0.005 nM
- EC50 (GIP receptor; EC50 (nM) at GIP receptor, Table 15, Example 23): 0.038 nM
